{"source": "paper PMC5893361", "about": "(International Journal for Parasitology, 2018)", "key": {"BmVAL-1": {"target": "T1, BmVAL-1 (Brugia malayi, UniProt A0A0J9Y762)", "T1 construct": "gene bma-scl-11.3; mature protein without 16-residue signal peptide, two vector-derived C-terminal residues; 206 residues; secreted from Nicotiana benthamiana; N-glycosylated at N52 and N138", "T1 sequence (A0A0J9Y762 entry or part of it)": "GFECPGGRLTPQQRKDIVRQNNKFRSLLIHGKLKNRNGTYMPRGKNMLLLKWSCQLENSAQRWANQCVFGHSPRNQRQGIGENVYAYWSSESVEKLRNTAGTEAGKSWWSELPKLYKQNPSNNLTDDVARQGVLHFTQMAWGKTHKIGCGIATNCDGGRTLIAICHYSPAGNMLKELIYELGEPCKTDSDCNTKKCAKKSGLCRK", "test": "radioligand saturation binding, Q-sepharose adsorption"}, "Pry1": {"target": "T2, Pry1 (Saccharomyces cerevisiae, UniProt P47032)", "T2 construct": "construct not described here (full length secreted protein or CAP domain)", "T2 sequence (P47032 20-299)": "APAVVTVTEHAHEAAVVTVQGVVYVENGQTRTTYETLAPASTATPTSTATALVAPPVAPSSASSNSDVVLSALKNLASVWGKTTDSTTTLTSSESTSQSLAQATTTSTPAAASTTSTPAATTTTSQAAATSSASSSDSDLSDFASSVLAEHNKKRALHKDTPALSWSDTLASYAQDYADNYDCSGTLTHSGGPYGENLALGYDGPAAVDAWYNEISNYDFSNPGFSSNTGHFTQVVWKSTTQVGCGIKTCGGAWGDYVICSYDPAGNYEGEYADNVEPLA", "test": "radioligand saturation binding, Q-sepharose adsorption"}}, "note": "Where two headings read alike, the source gives them in different places."}
{"smiles": "CC(C)CCC[C@@H](C)[C@H]1CC[C@H]2[C@@H]3CC=C4C[C@@H](O)CC[C@]4(C)[C@H]3CC[C@]12C", "note": "[cholesterol]", "values": [{"measurement": "Kd", "setting": "BmVAL-1", "result": 990, "unit": "nM"}, {"measurement": "Kd", "setting": "Pry1", "result": 1900, "unit": "nM"}]}
{"smiles": "CCCCCCCCCCCCCCCC(=O)O", "note": "[palmitate]", "values": [{"measurement": "Kd", "setting": "BmVAL-1; read-out: Kd", "result": 83000, "unit": "nM"}]}
